Columns and labels:
China jute (Ab) [1] = test: Test Example 5: crop plant selectivity by upland field soil treatment (wheat), herbicidal effects; type: in vivo; set-up: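 grade of growth control; 5 = at least 90%; 4 = 70 to 90%; 3 = 50 to 70%; 2 = 30 to 50%; 1 = 10 to 30%; 0 = under 10%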; conditions: dose 6.3 g ai/10a, 21st day after application
How it was run: (§1)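 Upland soil-treatment selectivity test: crop and weed seeds are sown together in sand-filled pots, soil-covered, then treated and grown under glass until rating at 21 days.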

pale smartweed (Po) [2] = test: as above; type: in vivo; set-up: scale not given here; conditions: dose 6.3 g ai/10a, 21st day after application
How it was run: as §1

[3] = test system: common lambsquarters (Ch); test: as above; type: in vivo; set-up: scale not given here; conditions: dose 6.3 g ai/10a, 21st day after application
How it was run: as §1

slender amaranth (Am) [4] = test: as above; type: in vivo; set-up: scale not given here; conditions: dose 6.3 g ai/10a, 21st day after application
How it was run: as §1

green foxtail (Se) [5] = test: as above; type: in vivo; set-up: scale not given here; conditions: dose 6.3 g ai/10a, 21st day after application
How it was run: as §1

China jute (Ab) [6] = test: Test Example 4: crop plant selectivity by upland field soil treatment (cotton), herbicidal effects; type: in vivo; set-up: scale not given here; conditions: dose 6.3 g ai/10 a, evaluated 21st day after application
How it was run: (§2)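 Cotton is sown alongside weeds in pots of sand, covered with soil, and the soil surface is treated. After greenhouse growth, herbicidal activity and phytotoxicity are graded on the 21st day.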

pale smartweed (Po) [7] = test: as above; type: in vivo; set-up: scale not given here; conditions: dose 6.3 g ai/10 a, evaluated 21st day after application
How it was run: as §2

[8] = test system: common lambsquarters (Ch); test: as above; type: in vivo; set-up: scale not given here; conditions: dose 6.3 g ai/10 a, evaluated 21st day after application
How it was run: as §2

slender amaranth (Am) [9] = test: as above; type: in vivo; set-up: scale not given here; conditions: dose 6.3 g ai/10 a, evaluated 21st day after application
How it was run: as §2

green foxtail (Se) [10] = test: as above; type: in vivo; set-up: scale not given here; conditions: dose 6.3 g ai/10 a, evaluated 21st day after application
How it was run: as §2

barnyardgrass (Ec) [11] = test: Test Example 2: herbicidal effects by upland field soil treatment; type: in vivo; conditions: 100 g of the active ingredient per 10 ares;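 note: grade of growth control; 5 = at least 90%; 4 = 70 to 90%; 3 = 50 to 70%; 2 = 30 to 50%; 1 = 10 to 30%; 0 = under 10%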
From the text: (§3) (Test on Herbicidal Effects by Upland Field Soil Treatment)

pale smartweed (Po) [12] = test: as above; type: in vivo; conditions: 100 g of the active ingredient per 10 ares
From the text: as §3

rice flatsedge (Ci) [13] = test: as above; type: in vivo; conditions: 100 g of the active ingredient per 10 ares
From the text: as §3

[14] = test system: common lambsquarters (Ch); test: as above; type: in vivo; conditions: 100 g of the active ingredient per 10 ares
From the text: as §3

slender amaranth (Am) [15] = test: as above; type: in vivo; conditions: 100 g of the active ingredient per 10 ares
From the text: as §3

Digitaria ciliaris (Di) = test: as above; type: in vivo; conditions: 100 g of the active ingredient per 10 ares;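 note: grade of growth control; 5 = at least 90%; 4 = 70 to 90%; 3 = 50 to 70%; 2 = 30 to 50%; 1 = 10 to 30%; 0 = under 10%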
From the text: as §3

cotton (Go) = test: Test Example 4: crop plant selectivity by upland field soil treatment (cotton), phytotoxicity; type: in vivo; set-up: scale not given here; conditions: dose 6.3 g ai/10 a, evaluated 21st day after application
How it was run: as §2

wheat (Tr) = test: Test Example 5: crop plant selectivity by upland field soil treatment (wheat), phytotoxicity; type: in vivo; set-up: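 grade of crop injury; 5 = at least 90%; 4 = 70 to 90%; 3 = 50 to 70%; 2 = 30 to 50%; 1 = 10 to 30%; 0 = under 10%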; conditions: dose 6.3 g ai/10a, 21st day after application
How it was run: as §1

barnyardgrass (Ec) [16] = test: Test Example 1: herbicidal effects by paddy field soil treatment; type: in vivo; conditions: 100 g of the active ingredient per 10 ares, 21st day after the application, index 0-5 of Table 47;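 note: grade of growth control; 5 = at least 90%; 4 = 70 to 90%; 3 = 50 to 70%; 2 = 30 to 50%; 1 = 10 to 30%; 0 = under 10%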
How it was run: (§4)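 Herbicidal effect was scored against a graded standard 21 days after treatment. Seeds were sown in puddled, leveled paddy soil flooded to 3 cm depth, and the active ingredient was applied at 100 g per 10 ares before greenhouse culture.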

bulrush (Sc) = test: as above; type: in vivo; conditions: 100 g of the active ingredient per 10 ares, 21st day after the application, index 0-5 of Table 47;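 note: grade of growth control; 5 = at least 90%; 4 = 70 to 90%; 3 = 50 to 70%; 2 = 30 to 50%; 1 = 10 to 30%; 0 = under 10%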
How it was run: as §4

monochoria (Mo) = test: as above; type: in vivo; conditions: 100 g of the active ingredient per 10 ares, 21st day after the application, index 0-5 of Table 47
How it was run: as §4

barnyardgrass (Ec) [17] = test: Test Example 3: herbicidal effects by upland field foliage treatment; type: in vivo; set-up: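 grade of growth control; 5 = at least 90%; 4 = 70 to 90%; 3 = 50 to 70%; 2 = 30 to 50%; 1 = 10 to 30%; 0 = under 10%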
How it was run: (§5)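 Test plants had been raised from seed for 2 weeks in a greenhouse, in soil-covered sand pots of 120 cm^2, and were returned there after spraying.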

Diaitaria ciliaris (Di) = test: as above; type: in vivo; set-up: scale not given here
How it was run: as §5

pale smartweed (Po) [18] = test: as above; type: in vivo; set-up: scale not given here
How it was run: as §5

rice flatsedge (Ci) [19] = test: as above; type: in vivo; set-up: scale not given here
How it was run: as §5

[20] = test system: common lambsquarters (Ch); test: as above; type: in vivo; set-up: scale not given here
How it was run: as §5

slender amaranth (Am) [21] = test: as above; type: in vivo; set-up: scale not given here
How it was run: as §5

[22] = 21st day after the application, index 0-5 of Table 47
[23] = 100 g of the active ingredient per 10 ares, evaluated on the 14th day after treatment
[24] = evaluated on the 21st day after application
[25] = 100 g active ingredient per 10 ares, evaluated 14th day after treatment

melting point [°C]	Compound	Herbicidal effects Ec (barnyardgrass (Ec) [11]; [22])	Herbicidal effects Po (pale smartweed (Po) [12]; [22])	Herbicidal effects Ci (rice flatsedge (Ci) [13]; [22])	Herbicidal effects Ch [14, 22]	Herbicidal effects Am (slender amaranth (Am) [15]; [22])	Herbicidal effects Di (Digitaria ciliaris (Di); [22])	Herbicidal effects Ec (barnyardgrass (Ec) [16])	Herbicidal effects Sc (bulrush (Sc))	Herbicidal effects Mo (monochoria (Mo))	Herbicidal effects Ec (barnyardgrass (Ec) [17]; [23])	Herbicidal effects Di (Diaitaria ciliaris (Di); [23])	Herbicidal effects Po (pale smartweed (Po) [18]; [23])	Herbicidal effects Ci (rice flatsedge (Ci) [19]; [23])	Herbicidal effects Ch [20, 23]	Herbicidal effects Am (slender amaranth (Am) [21]; [23])	also measured
150 to 151	CNS(=O)(=O)c1cc(-c2ccc(C(F)(F)F)n(C)c2=O)c(F)cc1Cl [Compound No. 1-71, 3-(4-chloro-2-fluoro-5-methylsulfamoylphenyl)-1-methyl-6-trifluoromethyl-2(1H)-pyridone]	5	5	5	5	5	5	5	5	5	5	5	5	5	5	5	Herbicidal effects Ab (China jute (Ab) [1]): 5; Herbicidal effects Po (pale smartweed (Po) [2]): 5; Herbicidal effects Ch [3]: 5; Herbicidal effects Am (slender amaranth (Am) [4]): 5; Herbicidal effects Se (green foxtail (Se) [5]): 5; Herbicidal effects Ab (China jute (Ab) [6]): 5; Herbicidal effects Po (pale smartweed (Po) [7]): 5; Herbicidal effects Ch [8]: 5; Herbicidal effects Am (slender amaranth (Am) [9]): 5; Herbicidal effects Se (green foxtail (Se) [10]): 5; Phytotoxicity Go (cotton (Go)): 1; Phytotoxicity Tr (wheat (Tr)): 2
107 to 108	C#CCOc1cc(-c2cc(C)c(C(F)(F)F)n(C)c2=O)c(F)cc1Cl [Compound No. 1-76, 3-(4-chloro-2-fluoro-5-propargyloxyphenyl)-1,5-dimethyl-6-trifluoromethyl-2(1H)-pyridone]	5	5	5	5	5	5	5	5	5	5	5	5	5	5	5	
117 to 118	Cn1c(C(F)(F)F)ccc(-c2cc(CBr)c(Cl)cc2F)c1=O [Compound No. 1-82, 3-(4-chloro-2-fluoro-5-bromomethylphenyl)-1-methyl-6-trifluoromethyl-2(1H)-pyridone]	4	5	5	5	5	5	5	5	5	4	5	5	5	5	5	
120 to 122	CCCC(O)c1cc(-c2ccc(C(F)(F)F)n(C)c2=O)c(F)cc1Cl (stereo not shown) [Compound No. 1-193, 3-[4-chloro-2-fluoro-5-(1-hydroxybutyl)phenyl]-1-methyl-6-trifluoromethyl-2(1H)-pyridone]							5	5	5							Herbicidal effects Ec (barnyardgrass (Ec) [11]; [24]): 5; Herbicidal effects Po (pale smartweed (Po) [12]; [24]): 5; Herbicidal effects Ci (rice flatsedge (Ci) [13]; [24]): 5; Herbicidal effects Ch [14, 24]: 5; Herbicidal effects Am (slender amaranth (Am) [15]; [24]): 5; Herbicidal effects Di (Digitaria ciliaris (Di); [24]): 5; Herbicidal effects Ec (barnyardgrass (Ec) [17]; [25]): 5; Herbicidal effects Di (Diaitaria ciliaris (Di); [25]): 5; Herbicidal effects Po (pale smartweed (Po) [18]; [25]): 5; Herbicidal effects Ci (rice flatsedge (Ci) [19]; [25]): 5; Herbicidal effects Ch [20, 25]: 5; Herbicidal effects Am (slender amaranth (Am) [21]; [25]): 5

Source: patent publication US6472348B1, “Pyridone derivatives and herbicides” (Kumiai Chemical Industry Co., Ltd., priority 1996, dated 2002)
